Experimental data taken from patent US20070021508A1, “Method for treatment of Helicobacter pylori infection and/or an associated disease” (priority 2005, published 2007).
In brackets after ≈: the same amount, converted by molar mass.

Columns and labels:
[1] = test system: HP 238; assay: Disc diffusion assay against HP for various compounds, HP 238; format: cell-based, Helicobacter pylori; settings: for Disc diffusion diameter: 40 μl on 8 mm disc, 48 hours; for anti-HP activity compared to other compounds: HP 238 lawn, disc diffusion
[2] = ornithine transcarbamylase-deficient patients, median dose 352 mg/kg/day, 26-month follow-up; cited from earlier work
[3] = test system: HP 43504; assay: Disc diffusion assay against HP for various compounds, HP 43504; format: cell-based, Helicobacter pylori; settings: for Disc diffusion diameter: 40 μl on 8 mm disc, 48 hours; for anti-HP activity compared to other compounds: HP 43504 lawn, disc diffusion
[4] = test system: HP 43504; assay: Disc diffusion assay against HP for PB plus various antibiotics, HP 43504; format: cell-based, Helicobacter pylori; settings: HP 43504, CDC agar, 8 mm disc, 48 hours; AMO 0.015 μg/20 μl, MTZ 5 μg/20 μl, TC 0.5 μg/20 μl, plus 20 μl water or 4-PB 2 mg/20 μl
Description: (§1) HP 43504 and […] were further used for testing PB in combination with various antibiotics in disc diffusion assays. After 2 days' pre-culture in a microaerophilic condition (O2 5%, CO2 10%, N2 85%) at 37° C., HP was suspended in a Brucella broth containing 5% sucrose to adjust its clone density at 1×10^8 CFU/ml. Then 100 μl of the bacterial suspension was inoculated onto a CDC agar plate. […] The agar plates were later transferred to a microaerobic jar to incubate at 37° C. The diameter of each inhibition zone (clear zone size) in the bacterial lawn was measured 48 hours later. The tested combinations used in this experiment comprised 4-PB (50 mg/ml) with amoxicillin (AMO), metronidazole (MTZ) or tetracycline (TC).

[5] = test system: H. pylori ATCC43504 (HP 43504); assay: Minimum inhibitory concentration (MIC) against HP 43504; format: cell-based; settings: Helicobacter pylori
Description: (§2) The HP strains used in the present studies are H. pylori ATCC43504 (HP 43504) and HP 238. HP 238 was isolated from a patient with MALToma in National Cheng Kung University Hospital, Tainan, Taiwan, and used as an antibiotic sensitive control. These strains were cultured under a microaerophilic condition (O2 5%, CO2 10%, N2 85%) in a 37° C. chamber.

[6] = test system: HP 238; assay: Disc diffusion assay against HP for PB plus various antibiotics, HP 238; format: cell-based, Helicobacter pylori; settings: HP 238, CDC agar, 8 mm disc, 48 hours; AMO 0.015 μg/20 μl, MTZ 5 μg/20 μl, TC 0.5 μg/20 μl, plus 20 μl water or 4-PB 2 mg/20 μl
Description: as §1, with “The tested combinations used in this experiment comprised 4-PB (50 mg/ml) with amoxicillin (AMO), metronidazole (MTZ) or tetracycline (TC).” left out

[7] = test system: HP 238; assay: Minimum inhibitory concentration (MIC) against HP 238; format: cell-based; settings: Helicobacter pylori; against clinically isolated strain HP 238
Description: as §2

[8] = HP 238, Brucella agar, 50 mg/ml
[9] = HP 238, Brucella agar, 100 mg/ml
[10] = HP 43504, Brucella agar, 50 mg/ml
[11] = HP 43504, Brucella agar, 100 mg/ml
[12] = HP 238, 100 mg/ml, no clear zone outside the paper disc
[13] = HP 43504, 100 mg/ml, no clear zone outside the paper disc

Molecule	Disc diffusion diameter [1, 9] [mm]	Disc diffusion diameter ([1]; HP 238, CDC agar, 50 mg/ml) [mm]	Disc diffusion diameter [3, 11] [mm]	Disc diffusion diameter ([3]; HP 43504, CDC agar, 50 mg/ml) [mm]	anti-HP activity [1, 12]	Disc diffusion diameter ([1]; HP 238, CDC agar, 100 mg/ml) [mm]	anti-HP activity [3, 13]	Disc diffusion diameter ([3]; HP 43504, CDC agar, 100 mg/ml) [mm]	diameter of inhibition zone (clear zone size) [4] [mm]	MIC [5] [µg/mL]	diameter of inhibition zone (clear zone size) [6] [mm]	also measured
4-phenylbutyrate [4-PB]	64	23	45	17								Disc diffusion diameter ([1]; HP 238, Brucella agar, 5 mg/ml): 8 mm; Disc diffusion diameter ([1]; HP 238, Brucella agar, 25 mg/ml): 26 mm; Disc diffusion diameter [1, 8]: 40 mm; Disc diffusion diameter ([1]; HP 238, CDC agar, 5 mg/ml): 8 mm; Disc diffusion diameter ([1]; HP 238, CDC agar, 25 mg/ml): 9 mm; anti-HP activity compared to other compounds [1]: much better anti-HP activity; side effects related to therapy [2]: neither hyperammonemic episodes requiring hospitalization nor side effects related to therapy occurred; Disc diffusion diameter ([3]; HP 43504, Brucella agar, 5 mg/ml): 8 mm; Disc diffusion diameter ([3]; HP 43504, Brucella agar, 25 mg/ml): 8 mm; Disc diffusion diameter [3, 10]: 33 mm; Disc diffusion diameter ([3]; HP 43504, CDC agar, 5 mg/ml): 8 mm; Disc diffusion diameter ([3]; HP 43504, CDC agar, 25 mg/ml): 8 mm; anti-HP activity compared to other compounds [3]: much better anti-HP activity
NCCC(N)C(=O)O (centres unmarked) [2,4-DAB, 2,4-diaminobutyric acid]	8		8		no obvious anti-HP activity	8	no obvious anti-HP activity	8				
CCC(N)C(=O)O (centres unmarked) [2-AB, 2-aminobutyric acid]	8		8		no obvious anti-HP activity	8	no obvious anti-HP activity	8				
CCC(C(=O)O)c1ccccc1 (centres unmarked) [2-PB, 2-phenylbutyrate]		14		8								Disc diffusion diameter [1, 8]: 24 mm; anti-HP activity compared to other compounds [1]: much better anti-HP activity; Disc diffusion diameter [3, 10]: 18 mm; anti-HP activity compared to other compounds [3]: much better anti-HP activity
CCCC(=O)[O-].[Na+] [Butyrate, Sodium butyrate]		11		8								disc diffusion capacity ([1]; HP 238, compared with 4-PB or 2-PB): much smaller than 4-PB or 2-PB; disc diffusion capacity ([3]; HP 43504, compared with 4-PB or 2-PB): much smaller than 4-PB or 2-PB
NCCCC(=O)O [GABA, gama-aminobutyric acid]	8		8		no obvious anti-HP activity	8	no obvious anti-HP activity	8				
CCCC(CCC)C(=O)[O-].[Na+] [Valproate, sodium valproate]												anti-HP activity ([1]; HP 238, 2 mg/ml to 16 mg/ml): no obvious anti-HP activity; Disc diffusion diameter ([1]; HP 238, CDC agar, 2 mg/ml): 8 mm; Disc diffusion diameter ([1]; HP 238, CDC agar, 4 mg/ml): 8 mm; Disc diffusion diameter ([1]; HP 238, CDC agar, 8 mg/ml): 8 mm; Disc diffusion diameter ([1]; HP 238, CDC agar, 16 mg/ml): 8 mm; anti-HP activity ([3]; HP 43504, 2 mg/ml to 16 mg/ml): no obvious anti-HP activity; Disc diffusion diameter ([3]; HP 43504, CDC agar, 2 mg/ml): 8 mm; Disc diffusion diameter ([3]; HP 43504, CDC agar, 4 mg/ml): 8 mm; Disc diffusion diameter ([3]; HP 43504, CDC agar, 8 mg/ml): 8 mm; Disc diffusion diameter ([3]; HP 43504, CDC agar, 16 mg/ml): 8 mm
CC1(C)S[C@@H]2[C@H](NC(=O)[C@H](N)c3ccc(O)cc3)C(=O)N2[C@H]1C(=O)O [amoxicillin]									8	0.12 (≈ 0.328 µM)	8	
Cc1ncc([N+](=O)[O-])n1CCO [metronidazole]									8	256 (≈ 1500 µM)	16	MIC [7]: 0.25 µg/mL (≈ 1.46 µM)
CN(C)[C@@H]1C(O)=C(C(N)=O)C(=O)[C@@]2(O)C(O)=C3C(=O)c4c(O)cccc4[C@@](C)(O)[C@H]3C[C@@H]12 [tetracycline]									8	1 (≈ 2.25 µM)	15	
